Experimental data as given in ChEMBL document CHEMBL1201862, “PubChem BioAssay data set” (2004).
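Tested at 5 concentrations; 48 h exposure; 96-well plates; endpoints linearly interpolated, else capped at highest concentration. Abbreviation: GI50, concentration required for 50% inhibition of growth.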 Calls of active or inactive are those of the source. No stated cut-off is given here; in the data, active = GI50 up to about 1.1 µM and inactive = higher.

Tests used:
Test in all cases: inhibition of tumour cell growth, NCI panel, 48 h
[1] = test system: TK-10
[2] = test system: OVCAR-3
[3] = test system: OVCAR-5
[4] = test system: DU-145
[5] = test system: SNB-75
[6] = test system: HCT-116
[7] = test system: HT-29
[8] = test system: MDA-MB-231
[9] = test system: HOP-92
[10] = test system: NCI/ADR-RES
[11] = test system: T47D
[12] = test system: MDA-MB-435
[13] = test system: SK-OV-3
[14] = test system: LOX IMVI
[15] = test system: NCI-H23
[16] = test system: OVCAR-8
[17] = test system: HCT-15
[18] = test system: CAKI-1
[19] = test system: EKVX
[20] = test system: BT-549

O=S(=O)(N1CCCCN(S(=O)(=O)C(F)(F)F)CCCN(S(=O)(=O)C(F)(F)F)CCCN(S(=O)(=O)C(F)(F)F)CCCCN(S(=O)(=O)C(F)(F)F)CCCN(S(=O)(=O)C(F)(F)F)CCC1)C(F)(F)F
GI50 [1]: 99.5 µM (inactive)
GI50 [2]: 38.4 µM (inactive)
GI50 [3]: > 100 µM (inactive)
GI50 [4]: > 100 µM (inactive)
GI50 [5]: 37.9 µM (inactive)
GI50 [6]: 87.1 µM (inactive)
GI50 [7]: > 100 µM (inactive)
GI50 [8]: > 100 µM (inactive)
GI50 [9]: 31 µM (inactive)
GI50 [10]: 53.2 µM (inactive)
GI50 [11]: 77.4 µM (inactive)
GI50 [12]: 53.7 µM (inactive)
GI50 [13]: > 100 µM (inactive)
GI50 [14]: 80.5 µM (inactive)
GI50 [15]: 56.5 µM (inactive)
GI50 [16]: 36.4 µM (inactive)
GI50 [17]: 68.4 µM
GI50 [18]: 37.2 µM (inactive)
GI50 [19]: 72.3 µM (inactive)
GI50 [20]: 23.7 µM (inactive)
